Results published in patent publication US9918971B2, “Aerosol formulations of granisetron and uses thereof” (LUXENA PHARMACEUTICALS, INC., priority 2013, dated 2018).
Values after ≈ are worked out from the molar mass of the structure shown. Values joined by “and” are separate entries in the source; they are usually repeats but may differ in a detail not shown here. Identical values can stand only once. Like-named read-outs stand apart in the source and are kept apart here.

How the values were obtained:
[1] = Particle size distribution of spray dried granisetron fine powder by Malvern Mastersizer; conditions: typical particle size distribution
[2] = Particle size distribution of jet milled granisetron fine powder by Malvern Spraytec
[3] = Solubility of granisetron in pMDI medium; type: physicochemical
Procedure: The solubility of granisetron was measured in a pMDI medium of HFA 134 as well as a mixture of HFA 134 and ethanol.

Structure (SMILES): CN1C2CCCC1CC(NC(=O)c1nn(C)c3ccccc13)C2 (stereo not shown) [Spray Dried Granisetron Fine Powder, granisetron]
- Cumulative % on <9 μm [1]: 98.0%
- D10 [1]: 1.01 μm
- D50 [1]: 2.33 μm
- D90 [1]: 5.34 μm

Structure (SMILES): CN1C2CCCC1CC(NC(=O)c1nn(C)c3ccccc13)C2.Cl (stereo not shown) [jet milled granisetron, Granisetron HCl]
- mass less than 5 μm in diameter ([2]; after fifth milling cycle): approximately 75%
- D10 ([2]; milling cycle 0): 3.77 μm
- D50 ([2]; milling cycle 0): 50.21 μm
- D90 ([2]; milling cycle 0): 445.02 μm
- D10 ([2]; milling cycle 1): 2.22 μm
- D50 ([2]; milling cycle 1): 7.01 μm
- D90 ([2]; milling cycle 1): 20.59 μm
- D10 ([2]; milling cycle 3): 1.44 μm
- D50 ([2]; milling cycle 3): 3.99 μm
- D90 ([2]; milling cycle 3): 9.90 μm
- D10 ([2]; milling cycle 5): 1.59 μm
- D50 ([2]; milling cycle 5): 3.79 μm
- D90 ([2]; milling cycle 5): 8.13 μm

Structure (SMILES): CN1C2CCCC1CC(NC(=O)c1nn(C)c3ccccc13)C2 (stereo not shown) [granisetron]
- Solubility, single determinations ([3]; HFA 134a with Ethanol (9:1), 10 days): 74.29 µg/mL and 97.99 µg/mL and 73.93 µg/mL
- Solubility, single determinations ([3]; HFA 134a with Ethanol (9:1), ~24 Hours): 84.173 µg/mL and 81.496 µg/mL
- Solubility ([3]; HFA 134a, 24 hours, converted with gravity 1.21 g/mL): 0.00018 % w/w
- Solubility, single determinations ([3]; HFA 134a, 10 days): 14.84 µg/mL and 10.26 µg/mL and 11.51 µg/mL and 15.77 µg/mL
- Solubility ([3]; HFA 134a, 10 days, converted with gravity 1.21 g/mL): 0.00108 % w/w
- Solubility ([3]; HFA 134 and ethanol, 24 hours): 0.00706 % w/w
- Solubility ([3]; HFA 134 and ethanol, 10 days): 0.00681 % w/w
- solubility at 10 days ([3]; pMDI medium (HFA 134a propellant), organic solvent or mixture, HFA 134a, 10 days, read-out: Solubility, Average (RSD)): 13.1 µg/mL (≈ 42 µM)
- solubility at 10 days ([3]; pMDI medium (HFA 134a propellant), organic solvent or mixture, HFA 134a, 10 days, read-out: Solubility, single determinations): 13.2 µg/mL (≈ 42.1 µM)
- Solubility ([3]; pMDI medium (HFA 134a propellant), organic solvent or mixture, HFA 134a, ~24 Hours, read-out: Solubility, Average (RSD)): 2.17 µg/mL (≈ 6.95 µM)
- solubility at 10 days ([3]; pMDI medium (HFA 134a with ethanol), organic solvent or mixture, HFA 134a with Ethanol (9:1), 10 days, read-out: Solubility, Average (RSD)): 82.4 µg/mL (≈ 264 µM)
- solubility at 10 days ([3]; pMDI medium (HFA 134a with ethanol), organic solvent or mixture, HFA 134a with Ethanol (9:1), 10 days, read-out: Solubility, single determinations): 79.9 µg/mL (≈ 256 µM)
- Solubility ([3]; pMDI medium (HFA 134a with ethanol), organic solvent or mixture, HFA 134a with Ethanol (9:1), ~24 Hours, read-out: Solubility, Average (RSD)): 85.5 µg/mL (≈ 274 µM)
- Solubility ([3]; pMDI medium (HFA 134a with ethanol), organic solvent or mixture, HFA 134a with Ethanol (9:1), ~24 Hours, read-out: Solubility, single determinations): 90.8 µg/mL (≈ 291 µM)
